Results taken from PubChem BioAssay AID226 (DTP/NCI, 2004).
Where “and” joins values, the source holds several entries; their conditions need not be identical. Identical values can stand only once. Inconclusive results and toxic doses are left out.

System: B6C3F1 mice, intracerebral ependymoblastoma, median survival T/C
Experiment: NCI In Vivo Anticancer Drug Screen. Data for tumor model Ependymoblastoma (intracerebral) in B6C3F1 mice
Settings: endpoint: median survival time, higher = longer survival
Protocol: The antitumor activity of compounds was measured in mice bearing transplantable tumors. Survival or tumor size were measured and the results are expressed as the measurement made in the treated group (T) divided by the measurement made in the vehicle treated control group (C). The tumor model used in this assay is Ependymoblastoma (intracerebral) in B6C3F1 mice

[1] = dose: 50.0 mg/kg/injection, schedule: Q01DX005 (ip), vehicle: saline
[2] = dose: 100.0 mg/kg/injection, schedule: Q01DX005 (ip), vehicle: saline
[3] = dose: 200.0 mg/kg/injection, schedule: Q01DX005 (ip), vehicle: saline

O=C(O)CC(NC(=O)CP(=O)(O)O)C(=O)O (configuration not stated)
T/C (dose: 1.0 mg/kg/injection, schedule: Q01DX005 (ip), vehicle: saline): 117 % of control
T/C (dose: 2.0 mg/kg/injection, schedule: Q01DX005 (ip), vehicle: saline): 104 % of control
T/C (dose: 4.0 mg/kg/injection, schedule: Q01DX005 (ip), vehicle: saline): 108 % of control
T/C (dose: 8.0 mg/kg/injection, schedule: Q01DX005 (ip), vehicle: saline): 104 % of control
T/C (dose: 16.0 mg/kg/injection, schedule: Q01DX005 (ip), vehicle: saline): 107 % of control
T/C (dose: 27.0 mg/kg/injection, schedule: Q#ADX018 (ip), vehicle: saline): 99 % of control
T/C (dose: 32.0 mg/kg/injection, schedule: Q01DX005 (ip), vehicle: saline): 101 % of control and 111 % of control
T/C (dose: 32.0 mg/kg/injection, schedule: Q04DX003 (ip), vehicle: saline): 96 % of control
T/C (dose: 45.0 mg/kg/injection, schedule: Q01DX009 (ip), vehicle: saline with Tween-80): 90 % of control
T/C (dose: 45.0 mg/kg/injection, schedule: Q12HX010 (ip), vehicle: saline): 103 % of control
T/C (dose: 45.0 mg/kg/injection, schedule: Q#A X010 (ip), vehicle: saline): 180 % of control
T/C (dose: 45.0 mg/kg/injection, schedule: Q#ADX018 (ip), vehicle: saline): 102 % of control
T/C (dose: 64.0 mg/kg/injection, schedule: Q01DX005 (ip), vehicle: saline): 104 % of control and 114 % of control
T/C (dose: 64.0 mg/kg/injection, schedule: Q04DX003 (ip), vehicle: saline): 109 % of control
T/C (dose: 90.0 mg/kg/injection, schedule: Q01DX005 (ip), vehicle: saline): 95 % of control and 100 % of control
T/C (dose: 90.0 mg/kg/injection, schedule: Q01DX009 (ip), vehicle: saline with Tween-80): 109 % of control
T/C (dose: 90.0 mg/kg/injection, schedule: Q#A X010 (ip), vehicle: saline): 187 % of control
T/C (dose: 90.0 mg/kg/injection, schedule: Q#ADX018 (ip), vehicle: saline): 95 % of control
T/C (dose: 100.0 mg/kg/injection, schedule: Q12HX010 (ip), vehicle: saline): 109 % of control
T/C (dose: 128.0 mg/kg/injection, schedule: Q01DX005 (ip), vehicle: saline): 101 % of control and 117 % of control
T/C (dose: 128.0 mg/kg/injection, schedule: Q04DX003 (ip), vehicle: saline): 105 % of control
T/C (dose: 180.0 mg/kg/injection, schedule: Q01DX005 (ip), vehicle: saline): 106 % of control and 110 % of control
T/C (dose: 180.0 mg/kg/injection, schedule: Q12HX010 (ip), vehicle: saline): 107 % of control
T/C (dose: 180.0 mg/kg/injection, schedule: Q#A X010 (ip), vehicle: saline): 172 % of control
T/C (dose: 256.0 mg/kg/injection, schedule: Q01DX005 (ip), vehicle: saline): 110 % of control
T/C (dose: 256.0 mg/kg/injection, schedule: Q04DX003 (ip), vehicle: saline): 114 % of control

COc1cc(NC(=O)CN(CCCl)CCCl)cc(OC)c1OC
T/C (dose: 25.0 mg/kg/injection, schedule: Q01DX009 (ip), vehicle: saline with Tween-80): 113 % of control
T/C (dose: 50.0 mg/kg/injection, schedule: Q01DX009 (ip), vehicle: saline with Tween-80): 113 % of control

S=c1nc[nH]c2nc[nH]c12
T/C (dose: 10.0 mg/kg/injection, schedule: Q01DX001 (ip), vehicle: Klucel (hydroxypropylcellulose) (HPC)): 92 % of control and 99 % of control and 101 % of control
T/C (dose: 20.0 mg/kg/injection, schedule: Q01DX001 (ip), vehicle: Klucel (hydroxypropylcellulose) (HPC)): 98 % of control and 100 % of control and 107 % of control
T/C (dose: 40.0 mg/kg/injection, schedule: Q01DX001 (ip), vehicle: Klucel (hydroxypropylcellulose) (HPC)): 100 % of control and 103 % of control (2×)
T/C (dose: 80.0 mg/kg/injection, schedule: Q01DX001 (ip), vehicle: Klucel (hydroxypropylcellulose) (HPC)): 95 % of control and 103 % of control and 107 % of control
T/C (dose: 160.0 mg/kg/injection, schedule: Q01DX001 (ip), vehicle: Klucel (hydroxypropylcellulose) (HPC)): 100 % of control and 101 % of control and 116 % of control

CN(C)c1nc(N(C)C)nc(N(C)C)n1
T/C [1]: 94 % of control
T/C (dose: 100.0 mg/kg/injection, schedule: Q01DX005 (ip), vehicle: saline with Tween-80): 100 % of control
T/C [2]: 94 % of control
T/C (dose: 200.0 mg/kg/injection, schedule: Q01DX001 (ip), vehicle: saline with Tween-80): 92 % of control
T/C (dose: 200.0 mg/kg/injection, schedule: Q01DX001 (ip), vehicle: saline): 96 % of control and 99 % of control and 104 % of control
T/C (dose: 200.0 mg/kg/injection, schedule: Q01DX005 (ip), vehicle: saline with Tween-80): 99 % of control
T/C [3]: 101 % of control
T/C (dose: 400.0 mg/kg/injection, schedule: Q01DX001 (ip), vehicle: saline with Tween-80): 100 % of control
T/C (dose: 400.0 mg/kg/injection, schedule: Q01DX001 (ip), vehicle: saline): 97 % of control and 107 % of control and 89 % of control
T/C (dose: 400.0 mg/kg/injection, schedule: Q01DX005 (ip), vehicle: saline with Tween-80): 87 % of control
T/C (dose: 800.0 mg/kg/injection, schedule: Q01DX001 (ip), vehicle: saline with Tween-80): 100 % of control
T/C (dose: 800.0 mg/kg/injection, schedule: Q01DX001 (ip), vehicle: saline): 92 % of control (2×) and 96 % of control
T/C (dose: 1600.0 mg/kg/injection, schedule: Q01DX001 (ip), vehicle: saline): 106 % of control

COc1c(C)c2c(c(O)c1C/C=C(\C)CCC(=O)O)C(=O)OC2
T/C (dose: 12.5 mg/kg/injection, schedule: Q01DX005 (ip), vehicle: saline): 101 % of control
T/C (dose: 25.0 mg/kg/injection, schedule: Q01DX005 (ip), vehicle: saline): 105 % of control
T/C [1]: 100 % of control
T/C [2]: 98 % of control
T/C [3]: 102 % of control
T/C (dose: 400.0 mg/kg/injection, schedule: Q01DX005 (ip), vehicle: saline): 98 % of control

CC([NH-])C[NH-].[Cl][Pt+2][Cl] (configuration not stated)
T/C (dose: 2.0 mg/kg/injection, schedule: Q01DX005 (ip), vehicle: dextrose): 94 % of control

CC(=O)OCC1C(=O)OCC1C(=O)N1Cc2cc3ccccc3nc2C1 (configuration not stated)
T/C (dose: 4.0 mg/kg/injection, schedule: Q01DX005 (ip), vehicle: saline with Tween-80): 99 % of control
T/C (dose: 8.0 mg/kg/injection, schedule: Q01DX005 (ip), vehicle: saline with Tween-80): 103 % of control and 104 % of control
T/C (dose: 16.0 mg/kg/injection, schedule: Q01DX005 (ip), vehicle: saline with Tween-80): 104 % of control
T/C (dose: 32.0 mg/kg/injection, schedule: Q01DX005 (ip), vehicle: saline with Tween-80): 104 % of control
T/C (dose: 64.0 mg/kg/injection, schedule: Q01DX005 (ip), vehicle: saline with Tween-80): 90 % of control and 101 % of control
T/C (dose: 128.0 mg/kg/injection, schedule: Q01DX005 (ip), vehicle: saline with Tween-80): 90 % of control

NCCOCC(N)C(=O)O (configuration not stated)
T/C (dose: 62.5 mg/kg/injection, schedule: Q01DX005 (ip), vehicle: saline): 93 % of control
T/C (dose: 125.0 mg/kg/injection, schedule: Q01DX005 (ip), vehicle: saline): 95 % of control
T/C (dose: 250.0 mg/kg/injection, schedule: Q01DX005 (ip), vehicle: saline): 98 % of control
T/C (dose: 500.0 mg/kg/injection, schedule: Q01DX005 (ip), vehicle: saline): 103 % of control

CSc1nc(N)nc2c1ncn2C1OC(CO)C(O)C1O (configuration not stated)
T/C (dose: 50.0 mg/kg/injection, schedule: Q01DX005 (ip), vehicle: suspension in saline): 108 % of control
T/C (dose: 100.0 mg/kg/injection, schedule: Q01DX005 (ip), vehicle: suspension in saline): 109 % of control
T/C (dose: 200.0 mg/kg/injection, schedule: Q01DX005 (ip), vehicle: suspension in saline): 100 % of control
T/C (dose: 400.0 mg/kg/injection, schedule: Q01DX005 (ip), vehicle: suspension in saline): 96 % of control
